Experimental data taken from patent publication US5650395A, “Treatment of pulmonary hypertension” (priority 1995, dated 1997).
Where a SMILES comes first, the peptide text is derived from it. Where no end group is shown, it is not given here. [ ]: non-standard residue; d: D form. dPhe(F5) = N[C@H](Cc1c(F)c(F)c(F)c(F)c1F)C(=O)O

Legend:
[1] = target: T1, GRP receptor (Rattus norvegicus, UniProt P52500); assay: Calcium mobilization assay in AR42J cells (Fura-2AM); assay type: cell-based; conditions: for increase of intracellular calcium concentration: peptide alone at 10 nM, AR42J cells
T1 construct: endogenous in cells; host or cells: Rat AR42J cells
T1 sequence (P52500 whole entry): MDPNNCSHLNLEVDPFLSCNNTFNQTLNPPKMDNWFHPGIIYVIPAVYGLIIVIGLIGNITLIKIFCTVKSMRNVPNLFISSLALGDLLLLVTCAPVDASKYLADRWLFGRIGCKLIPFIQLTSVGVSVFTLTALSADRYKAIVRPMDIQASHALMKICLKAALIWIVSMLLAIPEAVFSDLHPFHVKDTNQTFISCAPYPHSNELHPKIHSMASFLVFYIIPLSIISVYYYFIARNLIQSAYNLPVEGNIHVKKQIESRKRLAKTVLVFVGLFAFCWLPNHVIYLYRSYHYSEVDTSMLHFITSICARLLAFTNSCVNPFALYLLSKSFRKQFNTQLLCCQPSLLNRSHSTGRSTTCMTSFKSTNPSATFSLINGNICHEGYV
Experimental: A working example follows:
Rat AR42J cells were cultured in DMEM medium containing 10% fetal bovine serum (Sigma, St. Louis, Mo.) in an atmosphere of 5% CO2 and 95% air at 37° C. After 5 days of culture, the cells were harvested by incubating in a 0.3% EDTA/phosphate buffered saline solution (Sigma, St. Louis, Mo.) (25° C.) and washed twice by centrifugation. The washed cells were resuspended in Hank's-buffered saline solution (HBSS) (Sigma, St. Louis, Mo.) for loading of the fluorescent Ca^2+ indicator Fura-2AM (Molecular Probes, Eugene, Oreg.). Cell suspensions of approximately 10^6 cells/ml were incubated with 2 μM Fura-2AM for 30 min at 25° C. Unloaded Fura-2AM was removed by centrifugation (twice) in HBSS, and the final cell suspensions were transferred to a spectrofluorometer (Hitachi F-2000, Tokyo, Japan) equipped with a magnetic stirring mechanism and a temperature-regulated cuvette holder. After equilibration to 37° C., a test peptide or a known GRP […] was added for measurement of Ca^2+ mobilization. The excitation and emission wavelengths were 340 and 510 nm, respectively.

[2] = test system: patient with pulmonary hypertension; assay: Infusion in a patient with pulmonary hypertension secondary to liver disease (Swan-Ganz catheterization); assay type: in vivo, human
Text: BIM-26226, a bombesin antagonist, was further administered to a patient to test its efficacy in lowering the pulmonary systolic or diastolic pressure.
The patient, complained of increasing shortness of breath under moderate exertion. […] A clinical diagnosis of pulmonary hypertension, secondary to liver disease, was made.
An 8 G french introducer (Arrow, Reading, Pa.) was inserted into the right internal jugular vein of the patient. A 7 G french triple lumen-balloon inflation lumen Swan-Ganz line (Abbot, N. Chicago, Ill.) was inserted through the introducer. The catheter was first floated through the right atrium and ventricle into the pulmonary artery, and was then connected to a Hewlett Packard monitor (Model 66s, M1166A) using modules M1006A, M1020A, 1029A, 1008A, and M1166A. Measurements of central venous pressure, pulmonary artery pressure, mean pulmonary pressure, cardiac index, cardiac output, and pulmonary vascular resistance were analyzed directly. A 20 G arterial line was inserted into the left radial artery (Arrow, Reading, Pa.) for measurement of systemic blood pressure and blood gas partial pressure estimations.
The study was conducted in two phases. The placebo phase, which lasted 24 hours, consisted of an infusion of normal saline (0.9% NaCl) at a constant rate of 50 ml/hr. The active phase consisted of an infusion of BIM-26226 in increasing concentrations. BIM-26226 was supplied as lyophilized powder. BIM-26226 was reconstituted in water, and then diluted in normal saline initially to give an infusion concentration of 5 μg/kg/hr. The concentration was increased every four hours to a maximum of 200 mcg/kg/hr. BIM-26226 was administered through the jugular line at a constant infusion rate of 50 ml/hr. Observations as detailed above were recorded at least hourly, though more often if indicated. In addition, blood samples were taken every four hours for biochemical profile, hematological screening, and both peripheral and central GRP levels. The GRP level samples were collected on ice, centrifuged, and snap-frozen. Analysis on the GRP levels was performed using an established radioimmunoassay.
FIG. 1 summarizes the study. The pulmonary systolic and diastolic pressures are compared between both the infusion of the saline placebo (Plac sys and Plac dias) and BIM-26226 (BIM sys and BIM dias). The doses of BIM-26226 administered and the administration scheme are shown at the top of FIG. 1, e.g., 5 μg/kg/hr four hours initially.

[3] = target: T1, GRP receptor; assay: GRP receptor binding assay ([125I-Tyr4]bombesin, AR42J cell membranes); conditions: 30 min, 4° C., read-out: IC50 (concentration required to inhibit 50% of specific binding of [125I-Tyr4]bombesin)
Experimental: Membranes for the GRP receptor binding assay were obtained by homogenizing cultured AR42J cells (ATCC No. CRL-1492; American Type Culture Collection, Rockville, Md.) using a Polytron homogenizer (Brinkman Instruments, Westchester, N.Y.) at a setting of 6 for 15 sec. in an ice-cold 50 mM Tris-HCl buffer (Buffer A; Sigma, St. Louis, Mo.). See Singh, et al., 258 Am. J. Physiol. […] (1990). The homogenate was centrifuged twice at 39,000×g (10 min.) with an intermediate resuspension in fresh Buffer A. The final pellets were resuspended in Buffer A containing 0.1 mg/ml bacitracin and 0.1% bovine serum albumin (Buffer B) and held on ice for the receptor binding assay. Both bacitracin and bovine serum albumin were purchased from Sigma, St. Louis, Mo. Aliquots (0.4 ml) of the cell suspension were incubated with 0.05 ml of [^[…] ] bombesin (~2200 Ci/mmol; New England Nuclear, Boston, Mass.) in Buffer B and 0.05 ml of the test peptide (e.g., BIM-26226) at various concentrations (e.g., 0M to 10^-6 M) in Buffer B. […] Louis, Mo.). The filters were then washed three times with 5 ml aliquots of ice-cold Buffer A. Specific binding was defined as the total [^[…] ]bombesin bound in the presence of the test peptide minus that bound in the presence of 1 μM unlabeled GRP. […] BIM-26226, thus, has a high affinity for the GRP receptor. In other words, it is a GRP ligand.

[4] = test system: pulmonary haemodynamics; conditions: wide range of experimental conditions; cited from earlier work
[5] = test system: isolated pulmonary arteries; conditions: cited from earlier work

COC(=O)[C@H](CC(C)C)NC(=O)[C@H](Cc1c[nH]cn1)NC(=O)[C@@H](C)NC(=O)[C@@H](NC(=O)[C@H](C)NC(=O)[C@H](Cc1c[nH]c2ccccc12)NC(=O)[C@H](CCC(N)=O)NC(=O)[C@H](N)Cc1c(F)c(F)c(F)c(F)c1F)C(C)C [BIM-26226, H-D-F5 -Phe-Gln-TrP-Ala-Val-D-Ala-His-Leu-O-CH3] (H-[dPhe(F5)]QWAV[dA]HL-OMe)
increase of intracellular calcium concentration [1]: no effect | increase of intracellular calcium concentration by bombesin (10 nM) after pretreatment with antagonist ([1]; pretreated with BIM-26226 (10 nM)): 300 nM | reduction of bombesin-induced calcium increase versus bombesin alone ([1]; pretreated with BIM-26226 (10 nM), bombesin 10 nM): 205 nM | adverse events ([2]; active phase of infusion): Other than a mild urticarial response during the early active phase, the patient had no adverse events | pulmonary diastolic pressure ([2]; infusion rate of 200 μg/kg/hr, from 35 mm Hg): 42 mm Hg | pulmonary systolic pressure ([2]; infusion rate of 200 μg/kg/hr, from 90 mm Hg): 55 mm Hg | infusion rate at which pulmonary systolic pressure started to decrease ([2]; intravenous infusion, increasing doses every four hours): 25 µg/kg/h | pulmonary systolic pressure upon rechallenge ([2]; rechallenge after discontinuation): again dramatically decreased | blood biochemistry ([2]; upon infusion): no changes | cardiac index ([2]; upon infusion): no changes | cardiac output ([2]; upon infusion): no changes | peripheral vascular resistance ([2]; upon infusion): no changes | right atrial pressure ([2]; upon infusion): no changes | systemic blood pressure ([2]; upon infusion): no changes | period over which pulmonary pressure rose upon discontinuation of drug administration ([2]; within two half-lives of the drug): 15 min | IC50 [3]: 0.5 nM

CSCC[C@H](NC(=O)[C@H](CC(C)C)NC(=O)[C@H](Cc1cnc[nH]1)NC(=O)CNC(=O)[C@@H](NC(=O)[C@H](C)NC(=O)[C@H](Cc1c[nH]c2ccccc12)NC(=O)[C@H](CCC(N)=O)NC(=O)[C@H](CC(N)=O)NC(=O)CNC(=O)[C@H](CC(C)C)NC(=O)[C@H](CCCN=C(N)N)NC(=O)[C@H](CCC(N)=O)NC(=O)[C@@H]1CCC(=O)N1)C(C)C)C(N)=O [Bombesin]
in vivo pulmonary haemodynamic effect [4]: neither bombesin nor GRP, under a wide range of experimental conditions, have any demonstrable in vivo pulmonary haemodynamic effect | effect on isolated pulmonary arteries [5]: not to have an effect | increase of intracellular calcium concentration [1]: 505 nM

COc1ccc([C@@H]2Sc3ccccc3N(CCN(C)C)C(=O)[C@@H]2OC(C)=O)cc1 [diltiazem, reference compound]
effect on pulmonary pressure (therapeutic trial) ([2]; patient, before the BIM-26226 study): did not lower the pulmonary pressure

GRP: 27-amino acid peptide first isolated from the porcine gut (APVSVGGGTVLAKMYPRGNHWAVGHLM; ends and bridges not checked; UniProt P63153 24-50, looked up)
in vivo pulmonary haemodynamic effect [4]: neither bombesin nor GRP, under a wide range of experimental conditions, have any demonstrable in vivo pulmonary haemodynamic effect
